{"source": "patent US8278309B2", "about": "“Synthetic mimetics of host defense and uses thereof” (priority 2008, dated 2012)", "key": {"[1]": {"test_system": "MSSA ATCC 29213", "experiment": "Serial passage resistance, MSSA", "assay_type": "cell-based, S. aureus", "details": "0.5×MIC, 17 passages", "protocol": "Frozen bacterial stocks (20 μL) of S. aureus ATCC29213 or methicillin-resistant S. aureus (MRSA ATCC 33591) were inoculated into 3 mL cation-adjusted Mueller-Hinton medium and incubated at 37° C. on a shaker platform (250 rpm) overnight. The suspension was diluted to approximately 5×10^5 cfu/mL and inoculated into a polypropylene (Costar) 96-well round bottom plate (90 μL volumes). Compound stock solutions of Compound A and norfloxacin (Sigma Aldrich, St. Louis, Mo.; Catalogue# N9890) were prepared in DMSO and serial two-fold dilutions of compound were made in 0.01% acetic acid, 0.2% bovine serum albumin directly in the wells of the polypropylene plate at 10 μL/well. Final concentrations of Compound A were 50, 25, 12.5, 6.25, 3.13, 1.56, 0.78, 0.39, 0.19, 0.098, 0.049, and 0.024 μg/mL. Final concentration ranges of norfloxacin were 100, 50, 25, 12.5, 6.25, 3.13, 1.56, 0.78, 0.39, 0.19, 0.098, and 0.049 μg/mL. […] All samples were performed in triplicate. Following a 24 hour incubation at 37° C., cell growth was assessed by observing the presence of “acceptable growth”, defined by CLSI as a ≧2 mm button or definite turbidity. The MIC wells were defined as the lowest concentration where acceptable growth was not observed. For serial passage, 50 μL aliquots were taken from 2 of 3 replicate wells at 0.5×MIC and combined into 900 μL of fresh cation-adjusted Mueller-Hinton medium. The OD600 was measured and the cell suspensions were inoculated into polypropylene 96-well round bottom plates (90 μL volumes) at approximately 5×10^5 cfu/mL. Ten μL of compound stock solutions were added previously to the wells to achieve the concentration ranges for each compound described above. All samples were performed in triplicate. The plates were incubated for 24 hours at 37° C. This process was repeated for a total of 17 passages and MIC values were recorded at each passage."}, "[2]": {"test_system": "S. aureus (ATCC 13709)", "experiment": "Mouse thigh burden model", "assay_type": "in vivo", "details": "for bacterial reduction vs inoculated control group: thighs at 25 hours", "protocol": "Female 6-7-week old CD-1 mice were made neutropenic with cyclophosphamide (150 mg/kg, i.p.) on days 4 and 1 before i.m. inoculation with S. aureus (ATCC 13709). S. aureus inoculum was prepared by transferring colonies from 18-20-hour tryptic soy agar (TSA) cultures to sterile PBS. The density was adjusted to approximately 10^6 cfu/mL with the aid of a spectrophotometer, and the inoculum concentration was determined by the dilution plate count method. Mice were inoculated by injecting each posterior thigh with 0.1 mL of inoculum. Compound A was given to separate groups of mice (4 females/group) by i.v. bolus doses of 1 or 2 mg/kg/dose at 1 and 5, 1 and 9, or 1 and 13 hours post inoculation as shown in Table 5. A separate control group of 4 mice received the inoculum without antibiotic treatment. Compound A was dissolved 50%/50% v/v sterile USP purified water/PBS. Thighs were harvested at 25 hours after inoculation. Thigh muscle and bone tissue were homogenized, aliquots of serial dilutions were plated on TSA and incubated at 37° C. for 20 hours, and colony counts were obtained to calculate cfu/thigh."}, "[3]": {"test_system": "S. aureus", "experiment": "MIC or MIC90 vs S. aureus (selectivity table)", "assay_type": "cell-based", "details": "Staphylococcus aureus; * marks MIC90"}, "[4]": {"experiment": "Cytotoxicity colorimetric assay, NIH/3T3", "assay_type": "cell-based, mouse", "details": "mouse, NIH/3T3 cells; one hour in serum-free media", "protocol": "(§1) Cytotoxicity of Compound A was evaluated in a colorimetric assay using a transformed human liver cell line (HepG2, HB-8065) and an embryonic mouse cell line (NIH/3T3 cells, CRL-1658). This assay measures the bioreduction of a novel tetrazolium compound to a soluble formazan product by viable cells. HepG2 cells were seeded in 96 well plates at 2×10^4 cells/well in MEM medium with 10% fetal bovine serum (FBS) 24 hours prior to use. NIH/3T3 cells were seeded in 96 well plates at 2×10^4 cells/well in DMEM medium with 10% bovine calf serum (BCS) 24 hours prior to use. Cell monolayers were rinsed in serum-free media and incubated for one hour with Compound A in serum-free media. After incubation, the media was replaced with serum supplemented media and live cells were measured using the Cell Titer 96 Aqueous […] Assay kit (Promega, Madison, Wis.). EC50 values were determined using a four parameter logistic equation: Y=Bottom+(Top-Bottom)/(1+10^((LogEC50−X)*HillSlope))."}, "[5]": {"test_system": "NIH/3T3 cells", "experiment": "Cytotoxicity colorimetric assay, NIH/3T3", "assay_type": "cell-based, mouse", "details": "vs S. aureus MIC", "protocol": "as §1"}, "[6]": {"experiment": "Saturation solubility in excipients", "assay_type": "physicochemical", "details": "for solubility: thermodynamic from solid"}, "[7]": {"test_system": "Klebsiella pneumoniae", "experiment": "MIC broth microdilution, Gram-negative clinical isolates", "assay_type": "cell-based", "details": "2-3 isolates/organism, read-out: MIC", "protocol": "(§2) Compound A was evaluated in vitro in accordance with defined CLSI documents specific to the organisms (aerobic, anaerobic or yeast) tested in this study. Ampicillin, ceftazidime, cefuroxime, ciprofloxacin, linezolid, and vancomycin were tested alongside as comparator agents for aerobic bacteria; clindamycin and metronidazole were tested as comparators for anaerobes; fluconazole was tested as a comparator for yeast isolates. Stock solutions of Compound A were prepared in dimethyl sulfoxide (DMSO). Ampicillin, ceftazidime, cefuroxime, ciprofloxacin, linezolid, vancomycin, metronidazole, clindamycin, and fluconazole were prepared each according to its manufacturer's guideline.\n(§3) Minimum inhibitory concentrations (MICs) in μg/ml were determined according to CLSI guideline M7-A7 by broth microdilution. All aerobes were tested using Mueller-Hinton broth medium with the exception of Streptococcus spp., which were tested using cation-adjusted Mueller-Hinton broth supplemented with 2-5% lysed horse blood."}, "[8]": {"test_system": "Klebsiella oxytoca", "experiment": "MIC broth microdilution, Gram-negative clinical isolates", "assay_type": "cell-based", "details": "2-3 isolates/organism, read-out: MIC", "protocol": "as §2, §3"}, "[9]": {"test_system": "Escherichia coli", "experiment": "MIC broth microdilution, Gram-negative clinical isolates", "assay_type": "cell-based", "details": "2-3 isolates/organism, read-out: MIC", "protocol": "as §2, §3"}, "[10]": {"test_system": "Citrobacter freundi", "experiment": "MIC broth microdilution, Gram-negative clinical isolates", "assay_type": "cell-based", "details": "Citrobacter freundi; 2-3 isolates/organism; read-out: MIC", "protocol": "as §2, §3"}}, "note": "Entries after “also recorded” stand apart in the source; their conditions may differ. Where a name gives a salt, the structure may show the parent alone. Read-outs that look alike come from different tables or passages of the source."}
{"smiles": "N=C(N)NCCCCC(=O)Nc1cc(C(F)(F)F)cc(NC(=O)c2cc(C(=O)Nc3cc(C(F)(F)F)cc(NC(=O)CCCCNC(=N)N)c3O[C@H]3CCNC3)ncn2)c1O[C@H]1CCNC1", "note": "[Compound A, pyrimidine-4,6-dicarboxylic acid bis-{[3-(5-guanidino-pentanoylamino)-2-((R)-pyrrolidin-3-yloxy)-5-trifluoromethyl-phenyl]-amide}tetrahydrochloride]", "values": [{"measurement": "change in MIC values on serial passage", "setting": "[1]", "result": "did not result in any change; also recorded: no change"}, {"measurement": "bacterial reduction vs inoculated control group", "setting": "[2]; 2 mg/kg/dose i.v. bolus at 1 and 5 hours after inoculation", "result": 3.96, "unit": "logs"}, {"measurement": "bacterial reduction vs inoculated control group", "setting": "[2]; 2 mg/kg/dose i.v. bolus at 1 and 9 hours after inoculation", "result": 3.93, "unit": "logs"}, {"measurement": "static efficacy dose in the thigh burden model", "setting": "[2]; mouse", "result": "2 to 4", "unit": "mg/kg"}, {"measurement": "MIC90", "setting": "[3]", "result": 1, "unit": "µg/mL"}, {"measurement": "EC50 at 1 h", "setting": "[4]", "result": 430, "unit": "µg/mL"}, {"measurement": "Selectivity (EC50/MIC) 3T3", "setting": "[5]", "result": 430}, {"measurement": "behaviour of formulation at saturation", "setting": "[6]; 0.9% and 1.2% sodium chloride solution", "result": "formed a viscous yellow gel"}, {"measurement": "solubility", "setting": "[6]; 15% w/v glycerin in purified water, 25 °C, aqueous with cosolvent or surfactant or cyclodextrin, 15% w/v glycerin in purified water, read-out: saturation solubility at 25° C. (free base)", "result": 63.5, "unit": "mg/mL"}, {"measurement": "solubility", "setting": "[6]; 15% w/v propylene glycol in purified water, 25 °C, aqueous with cosolvent or surfactant or cyclodextrin, 15% w/v propylene glycol in purified water, read-out: saturation solubility at 25° C. (free base)", "result": 64.9, "unit": "mg/mL"}, {"measurement": "solubility", "setting": "[6]; 20% w/v Kleptose in purified water, 25 °C, aqueous with cosolvent or surfactant or cyclodextrin, 20% w/v Kleptose in purified water, read-out: saturation solubility at 25° C. (free base)", "result": 79.7, "unit": "mg/mL"}, {"measurement": "behaviour of formulation at saturation", "setting": "[6]; 20-50% w/v propylene glycol in saline", "result": "formation of a viscous yellow gel"}, {"measurement": "solubility", "setting": "[6]; 25% w/v Captisol in purified water, 25 °C, aqueous with cosolvent or surfactant or cyclodextrin, 25% w/v Captisol in purified water, read-out: saturation solubility at 25° C. (free base)", "result": 64.3, "unit": "mg/mL"}, {"measurement": "solubility", "setting": "[6]; 30% w/v glycerin in purified water, 25 °C, aqueous with cosolvent or surfactant or cyclodextrin, 30% w/v glycerin in purified water, read-out: saturation solubility at 25° C. (free base)", "result": 63.1, "unit": "mg/mL"}, {"measurement": "solubility", "setting": "[6]; 30% w/v propylene glycol and 5 w/v ethanol in purified water, 25 °C, aqueous with cosolvent or surfactant or cyclodextrin, 30% w/v propylene glycol and 5 w/v ethanol in purified water, read-out: saturation solubility at 25° C. (free base)", "result": 43.9, "unit": "mg/mL"}, {"measurement": "solubility", "setting": "[6]; 30% w/v propylene glycol in purified water, 25 °C, aqueous with cosolvent or surfactant or cyclodextrin, 30% w/v propylene glycol in purified water, gelled during centrifugation but liquefied on standing, read-out: saturation solubility at 25° C. (free base)", "result": 59.1, "unit": "mg/mL"}, {"measurement": "solubility", "setting": "[6]; 40% w/v Kleptose in purified water, 25 °C, aqueous with cosolvent or surfactant or cyclodextrin, 40% w/v Kleptose in purified water, read-out: saturation solubility at 25° C. (free base)", "result": 102, "unit": "mg/mL"}, {"measurement": "solubility", "setting": "[6]; 50% w/v glycerin in purified water, 25 °C, aqueous with cosolvent or surfactant or cyclodextrin, 50% w/v glycerin in purified water, read-out: saturation solubility at 25° C. (free base)", "result": 56.8, "unit": "mg/mL"}, {"measurement": "solubility", "setting": "[6]; 50% w/v propylene glycol in purified water, 25 °C, aqueous with cosolvent or surfactant or cyclodextrin, 50% w/v propylene glycol in purified water, read-out: saturation solubility at 25° C. (free base)", "result": 74.7, "unit": "mg/mL"}, {"measurement": "saturation solubility at 25° C. (free base)", "setting": "[6]; Citric Acid/Sodium Citrate (pH 5)", "result": 11.2, "unit": "mg/mL"}, {"measurement": "solubility", "setting": "[6]; DMA, 25 °C, organic solvent or mixture, DMA, read-out: saturation solubility at 25° C. (free base)", "result": 0.6, "unit": "mg/mL"}, {"measurement": "solubility", "setting": "[6]; PEG 400, 25 °C, organic solvent or mixture, PEG 400, read-out: saturation solubility at 25° C. (free base)", "result": 18.5, "unit": "mg/mL"}, {"measurement": "solubility", "setting": "[6]; Tris(hydroxymethyl)aminomethane buffer, 25 °C, pH 7.4, aqueous buffer, pH 7.4, read-out: solubility", "result": 61.4, "unit": "mg/mL"}, {"measurement": "solubility", "setting": "[6]; benzyl alcohol, 25 °C, organic solvent or mixture, Benzyl alcohol, read-out: saturation solubility at 25° C. (free base)", "result": 1.83, "unit": "mg/mL"}, {"measurement": "solubility", "setting": "[6]; citric acid/sodium citrate buffer, 25 °C, pH 3, aqueous buffer, Citric Acid/Sodium Citrate (pH 3), read-out: saturation solubility at 25° C. (free base)", "result": 65.5, "unit": "mg/mL"}, {"measurement": "solubility", "setting": "[6]; citric acid/sodium citrate buffer, 25 °C, pH 5, aqueous buffer, Citric Acid/Sodium Citrate (pH 5), read-out: saturation solubility at 25° C. (free base)", "result": 12.1, "unit": "mg/mL"}, {"measurement": "solubility", "setting": "[6]; ethanol, 25 °C, organic solvent or mixture, Ethanol, read-out: saturation solubility at 25° C. (free base)", "result": 1.13, "unit": "mg/mL"}, {"measurement": "solubility", "setting": "[6]; glycerin, 25 °C, organic solvent or mixture, Glycerin, read-out: saturation solubility at 25° C. (free base)", "result": 53, "unit": "mg/mL"}, {"measurement": "solubility", "setting": "[6]; propylene glycol, 25 °C, organic solvent or mixture, Propylene Glycol, read-out: saturation solubility at 25° C. (free base)", "result": 90, "unit": "mg/mL"}, {"measurement": "solubility", "setting": "[6]; purified water, 25 °C, water, Purified Water, read-out: saturation solubility at 25° C. (free base)", "result": 65, "unit": "mg/mL"}, {"measurement": "solubility", "setting": "[6]; tris(hydroxymethyl)aminomethane HCl buffer, 25 °C, pH 7, aqueous buffer, Tris(hydroxymethyl)amino methane HCl (pH 7.0), read-out: saturation solubility at 25° C. (free base)", "result": 61.4, "unit": "mg/mL"}, {"measurement": "MIC", "setting": "[7]", "result": "1 to 2", "unit": "µg/mL"}, {"measurement": "MIC", "setting": "[8]", "result": "2 to 8", "unit": "µg/mL"}, {"measurement": "MIC", "setting": "[9]", "result": "1 to 2", "unit": "µg/mL"}, {"measurement": "MIC", "setting": "[10]", "result": "2 to 4", "unit": "µg/mL"}]}
